According to patent US6117661A, “Mutant mono-oxygenase cytochrome P450cam” (BG plc, priority 1995, dated 2000):
Where two headings read alike, the source gives them in different places.

Columns and labels:
[1] = molecular target: P450cam Mutant Y96A (Pseudomonas putida, UniProt P00183, C335A/Y97A); assay type: binding, P. putida; conditions: for Mutant Y96A ΔSpin high/low: -- = no shift, nd = not determined
[2] = molecular target: T1, Wild type P450cam (Pseudomonas putida, UniProt P00183); assay type: binding, P. putida; conditions: for Wild type ΔSpin high/low: -- = no shift, nd = not determined; for haem spin-state conversion on substrate binding: Soret band 418 nm to 392 nm
[3] = molecular target: T2, P450cam Y96A (also contains the C334A mutation) (Pseudomonas putida, UniProt P00183, C335A/Y97A); assay type: biochemical, P. putida; conditions: small alkanes
T2 construct: reconstituted with putidaredoxin and putidaredoxin reductase
Procedure: (§1) A buffered solution (50 mM Tris.HCI, pH 7.4), typically 3 ml in volume, containing 10 uM putidaredoxin, 2 uM putidaredoxin reductase, 1 uM cytochrome P-450cam mono-oxygenase (wild-type or mutant), 200 mM KCI, 50 ug/ml bovine liver catalase (Sigma), and 1 mM target organic compound such as cyclohexylbenzene (added as a 0.1 M stock in ethanol) was preincubated at 30° C. for 5 minutes. The enzymatic reaction was initiated by adding NADH to a total concentration of 2 mM. Further four aliquots of NADH (to increase the NADH concentration by 1 mM each time) were added in intervals of 10 minutes, and 30 minutes into the incubation one aliquot of substrate (to increase the concentration by 1 mM) was also added. The reaction was quenched after 60 minutes by adding 0.5 ml chloroform and vortexing the mixture. The phases were separated by centrifugation (4000 g) at 4° C. The chloroform layer was analyzed by gas chromatography.
(§2) The NADH concentration can be monitored at 340 nm and, in all cases, more substrates and NADH are added during the incubation.
(§3) Turnover rate measured as NADH consumption rate
(§4) (nmole NADH/nmole P450cam/s).

[4] = molecular target: T1, Wild type P450cam; experiment: Turnover rate measured as NADH consumption rate; assay type: biochemical, P. putida; conditions: small alkanes; background about 0.07
Procedure: as §1, §2, §3, §4

[5] = molecular target: T3, P450cam active site mutant Y96F (also C334A) (Pseudomonas putida, UniProt P00183, C335A/Y97F); assay type: biochemical, P. putida; conditions: label = product
T3 construct: reconstituted with putidaredoxin and putidaredoxin reductase
Procedure: as §1
(§5) For many substrate compounds such as cyclohexylbenzene for which not all the P-450cam-mediated oxidation products are commercially available, the chloroform extracts are evaporated to dryness under a stream of nitrogen. The residues were extracted with hexane and the oxidation products separated by high performance liquid chromatography, eluting with a hexane/isopropanol gradient. The purified products were then identified by mass spectroscopy and particularly nuclear magnetic resonance spectroscopy.
as §2

[6] = molecular target: T4, P450cam active site mutant Y96A (also C334A) (Pseudomonas putida, UniProt P00183, C335A/Y97A); assay type: biochemical, P. putida; conditions: label = product
T4 construct: reconstituted with putidaredoxin and putidaredoxin reductase
Procedure: as §1, §5, §2

c1ccc2c(c1)CCCC2 [1,2,3,4-Tetrahydro naphthalene]
Mutant Y96A Vs DTT [1]: 40 | Mutant Y96A ΔSpin high/low [1]: 40 | Wild type Vs DTT [2]: 10 | Wild type ΔSpin high/low [2]: 5

C1=Cc2ccccc2CC1 [1,2-Dihydronaphthalene]
Mutant Y96A Vs DTT [1]: 90 | Mutant Y96A ΔSpin high/low [1]: 30 | Wild type Vs DTT [2]: 20 | Wild type ΔSpin high/low [2]: 5

CCc1cccc2ccccc12 [1-Ethylnaphthalene]
Mutant Y96A Vs DTT [1]: 20 | Mutant Y96A ΔSpin high/low [1]: 5

CCCC(=O)Oc1cccc2ccccc12 [1-Naphthylbutyrate]
Mutant Y96A Vs DTT [1]: 5 | Wild type Vs DTT [2]: 5

CCC(=O)Oc1cccc2ccccc12 [1-Naphthylpropionate]
Mutant Y96A Vs DTT [1]: 20 | Mutant Y96A ΔSpin high/low [1]: 0 | Wild type Vs DTT [2]: 20

CC(C)CC(C)(C)C [2,2,4-trimethyl pentane]
Turnover rate (NADH consumption rate) Y96A [3]: 5.3 nmole NADH/nmole P450cam/s | Turnover rate (NADH consumption rate) Wild type [4]: 0.9 nmole NADH/nmole P450cam/s

CCC(C)(C)C [2,2-dimethyl butane]
Turnover rate (NADH consumption rate) Y96A [3]: 14.0 nmole NADH/nmole P450cam/s | Turnover rate (NADH consumption rate) Wild type [4]: background

CCCC(C)(C)C [2,2-dimethyl pentane]
Turnover rate (NADH consumption rate) Y96A [3]: 12.8 nmole NADH/nmole P450cam/s | Turnover rate (NADH consumption rate) Wild type [4]: 5.2 nmole NADH/nmole P450cam/s

CC(C)C(C)C [2,3-dimethyl butane]
Turnover rate (NADH consumption rate) Y96A [3]: 16.8 nmole NADH/nmole P450cam/s | Turnover rate (NADH consumption rate) Wild type [4]: background

CC(C)CC(C)C [2,4-dimethyl pentane]
Turnover rate (NADH consumption rate) Y96A [3]: 12.6 nmole NADH/nmole P450cam/s | Turnover rate (NADH consumption rate) Wild type [4]: 0.2 nmole NADH/nmole P450cam/s

CCc1ccc2ccccc2c1 [2-Ethylnaphthalene]
Mutant Y96A Vs DTT [1]: 20 | Mutant Y96A ΔSpin high/low [1]: 10

O=Cc1ccc2c(c1)Cc1ccccc1-2 [2-Fluorencarboxaldehyde]
Mutant Y96A Vs DTT [1]: 50

CCCCC(C)O (stereo not shown) [2-hexanol]
Products(%) Y96F ([5]; substrate hexane): 24% | Products(%) Y96A ([6]; substrate hexane): 26%

CCCCC(C)=O [2-hexanone]
Products(%) Y96F ([5]; substrate hexane): 10% | Products(%) Y96A ([6]; substrate hexane): 15%

CCC(C)C [2-methyl butane]
Turnover rate (NADH consumption rate) Y96A [3]: 4.6 nmole NADH/nmole P450cam/s | Turnover rate (NADH consumption rate) Wild type [4]: background

CCCCCC(C)C [2-methyl heptane]
Turnover rate (NADH consumption rate) Y96A [3]: 2.1 nmole NADH/nmole P450cam/s | Turnover rate (NADH consumption rate) Wild type [4]: background

CCCC(C)C [2-methyl pentane]
Turnover rate (NADH consumption rate) Y96A [3]: 11.7 nmole NADH/nmole P450cam/s | Turnover rate (NADH consumption rate) Wild type [4]: 3.8 nmole NADH/nmole P450cam/s

CCCCC(C)(C)O [2-methyl-2-hexanol]
Products(%) Y96F ([5]; substrate 2-methyl hexane): 72% | Products(%) Y96A ([6]; substrate 2-methyl hexane): 74%

CCCC(O)C(C)C (stereo not shown) [2-methyl-3-hexanol]
Products(%) Y96F ([5]; substrate 2-methyl hexane): 7% | Products(%) Y96A ([6]; substrate 2-methyl hexane): 4%

CCC(CC)CC [3-ethyl pentane]
Turnover rate (NADH consumption rate) Y96A [3]: 16.2 nmole NADH/nmole P450cam/s | Turnover rate (NADH consumption rate) Wild type [4]: background

CCCC(O)CC (stereo not shown) [3-hexanol]
Products(%) Y96F ([5]; substrate hexane): 50% | Products(%) Y96A ([6]; substrate hexane): 32%

CCCC(=O)CC [3-hexanone]
Products(%) Y96F ([5]; substrate hexane): 16% | Products(%) Y96A ([6]; substrate hexane): 28%

CCC(C)CC [3-methyl pentane]
Turnover rate (NADH consumption rate) Y96A [3]: 14.2 nmole NADH/nmole P450cam/s | Turnover rate (NADH consumption rate) Wild type [4]: 1.3 nmole NADH/nmole P450cam/s

CCCC(C)CCC [4-methyl heptane]
Turnover rate (NADH consumption rate) Y96A [3]: 10.2 nmole NADH/nmole P450cam/s | Turnover rate (NADH consumption rate) Wild type [4]: 1.4 nmole NADH/nmole P450cam/s

CC(C)CCC(C)O (stereo not shown) [5-methyl-2-hexanol]
Products(%) Y96F ([5]; substrate 2-methyl hexane): 5% | Products(%) Y96A ([6]; substrate 2-methyl hexane): 8%

CC(=O)CCC(C)C [5-methyl-2-hexanone]
Products(%) Y96F ([5]; substrate 2-methyl hexane): 16% | Products(%) Y96A ([6]; substrate 2-methyl hexane): 14%

O=C1c2ccccc2-c2ccccc21 [9-Fluorenone]
Mutant Y96A Vs DTT [1]: 5 | Wild type Vs DTT [2]: 20

CC1(C)[C@@H]2CC[C@@]1(C)C(=O)C2=O [(1R)-(-)-Camphorquinone]
Mutant Y96A Vs DTT [1]: 80 | Mutant Y96A ΔSpin high/low [1]: 80 | Wild type Vs DTT [2]: 80 | Wild type ΔSpin high/low [2]: 80

CC1(C)C(=O)[C@]2(C)CC[C@H]1C2 [(1R)-(-)-Fenchone]
Mutant Y96A Vs DTT [1]: 80 | Mutant Y96A ΔSpin high/low [1]: 50 | Wild type Vs DTT [2]: 70 | Wild type ΔSpin high/low [2]: 40

C=C(C)[C@H]1CC=C(C)C(=O)C1 [(S)-(+)-Carvone]
Mutant Y96A Vs DTT [1]: 80 | Mutant Y96A ΔSpin high/low [1]: 10 | Wild type Vs DTT [2]: 60 | Wild type ΔSpin high/low [2]: 10

O=C1c2ccccc2Cc2ccccc21 [Anthrone]
Mutant Y96A Vs DTT [1]: 5 | Wild type Vs DTT [2]: 5

c1ccc(COCc2ccccc2)cc1 [Benzylether]
Mutant Y96A ΔSpin high/low [1]: 55 | Wild type Vs DTT [2]: 5

c1ccc(CCc2ccccc2)cc1 [Bibenzyl]
Mutant Y96A Vs DTT [1]: 55 | Mutant Y96A ΔSpin high/low [1]: 55

c1ccc(-c2ccccc2)cc1 [Biphenyl]
Mutant Y96A Vs DTT [1]: 90 | Wild type Vs DTT [2]: 20

C1CCCCC1 [Cyclohexane]
Mutant Y96A Vs DTT [1]: 60 | Mutant Y96A ΔSpin high/low [1]: 60

C1=CCCCC1 [Cyclohexene]
Mutant Y96A Vs DTT [1]: 40 | Mutant Y96A ΔSpin high/low [1]: 40 | Wild type Vs DTT [2]: 5

O=C(c1ccccc1)C1CCCCC1 [Cyclohexylphenylketone]
Mutant Y96A ΔSpin high/low [1]: 60 | Wild type Vs DTT [2]: 30

C1=CC2C3C=CC(C3)C2C1 (stereo not shown) [Dicyclopentadiene]
Mutant Y96A Vs DTT [1]: 90 | Mutant Y96A ΔSpin high/low [1]: 90 | Wild type Vs DTT [2]: 80 | Wild type ΔSpin high/low [2]: 50

c1ccc(Oc2ccccc2)cc1 [Diphenylether]
Mutant Y96A Vs DTT [1]: 50 | Mutant Y96A ΔSpin high/low [1]: 20 | Wild type Vs DTT [2]: 5 | Wild type ΔSpin high/low [2]: 10

c1ccc(Cc2ccccc2)cc1 [Diphenylmethane]
Mutant Y96A ΔSpin high/low [1]: 45 | Wild type Vs DTT [2]: 5

CCc1ccccc1 [Ethylbenzene]
Mutant Y96A ΔSpin high/low [1]: 40

c1ccc2c(c1)Cc1ccccc1-2 [Fluorene]
Mutant Y96A Vs DTT [1]: 50

C=CC(=C)C [Isoprene]
Mutant Y96A Vs DTT [1]: 10 | Mutant Y96A ΔSpin high/low [1]: 10

CC1CCCCC1 [Methylcyclohexane]
Mutant Y96A Vs DTT [1]: 70 | Mutant Y96A ΔSpin high/low [1]: 100 | Wild type Vs DTT [2]: 50 | Wild type ΔSpin high/low [2]: 50

c1ccc(CNc2ccccc2)cc1 [N-Phenylbenzylamine]
Mutant Y96A ΔSpin high/low [1]: 45 | Wild type Vs DTT [2]: 5

CCCCCCCC/C=C\CCCCCCCC(=O)O [Oleic acid]
Mutant Y96A Vs DTT [1]: ~20 | Wild type Vs DTT [2]: ~10

O=C(Oc1ccccc1)c1ccccc1 [Phenylbenzoate]
Wild type Vs DTT [2]: 5

CCCCCCCCCCCCOS(=O)(=O)O [SDS]
Mutant Y96A Vs DTT [1]: 60 | Wild type Vs DTT [2]: 20

CC(C)CCCC(C)CCCC(C)CCCCC(C)CCCC(C)CCCC(C)C (stereo not shown) [Squalane]
Mutant Y96A Vs DTT [1]: 20

C=Cc1ccccc1 [Styrene]
Mutant Y96A Vs DTT [1]: 30 | Mutant Y96A ΔSpin high/low [1]: 30

Cc1ccccc1 [Toluene]
Mutant Y96A Vs DTT [1]: 30 | Mutant Y96A ΔSpin high/low [1]: 30

C1C2CC3CC1CC(C2)C3 [adamantane, reference compound]
haem spin-state conversion on substrate binding [2]: fully converted the haem to the 5-co-ordinated, high-spin form

O=C1C2CC3CC(C2)CC1C3 [adamantanone, reference compound]
haem spin-state conversion on substrate binding [2]: fully converted the haem to the 5-co-ordinated, high-spin form

C(=C/c1ccccc1)/c1ccccc1 [cis-Stilbene]
Mutant Y96A Vs DTT [1]: 50 | Mutant Y96A ΔSpin high/low [1]: 40 | Wild type Vs DTT [2]: 20

C1CCCCCC1 [cycloheptane]
Turnover rate (NADH consumption rate) Y96A [3]: 42.5 nmole NADH/nmole P450cam/s | Turnover rate (NADH consumption rate) Wild type [4]: 4.4 nmole NADH/nmole P450cam/s

CCCCCCCCCCCC [n-Dodecane]
Mutant Y96A Vs DTT [1]: 5 | Mutant Y96A ΔSpin high/low [1]: 5

CCCCCCCCC [n-Nonane]
Mutant Y96A Vs DTT [1]: 45 | Mutant Y96A ΔSpin high/low [1]: 70

CCCCCCCCCCC [n-Undecane]
Mutant Y96A Vs DTT [1]: 20 | Mutant Y96A ΔSpin high/low [1]: 20

C1CC2CCC1C2 [norbornane, reference compound]
haem spin-state conversion on substrate binding [2]: fully converted the haem to the 5-co-ordinated, high-spin form

C1CC[C@H]2CCCC[C@@H]2C1 [trans-Decahydro naphthalene]
Mutant Y96A Vs DTT [1]: 70 | Mutant Y96A ΔSpin high/low [1]: 90 | Wild type Vs DTT [2]: 10 | Wild type ΔSpin high/low [2]: 20
